One assay has as its system Akt. The experiment in a line: Akt serine 473 phosphorylation, western immunoblot in HUVEC. Type of assay: cell-based, human.
The subject of assay [1] is tumor-induced blood-vessel formation. As to conditions: mouse model of tumor-cell induced angiogenesis; cited from earlier work.
The test system of another assay is HUVEC. Nature of the assay: Apoptosis assays in serum-free HUVEC (Annexin-V/propidium iodide, Hoechst 33342 pyknotic nuclei). Conditions: serum-free media. Type of assay: cell-based, human. On the procedure:
HUVEC cultures were plated on chamber slides at a density of 4×10^4 cells/well. […] Parallel cultures were infected with an adenoviral construct expressing dominant-negative Akt (dnAKT) 24 hours prior to the change to serum-free media.
Data are shown as the mean ±S.E.M. (n=4-6, *p<0.05).
Fluorescence-labeled Annexin-V-FLUOS staining of HUVEC was performed according to manufacturer's instructions (Roche Molecular Biochemicals). Briefly, cells were plated on to chamber slides (Nunc) and placed in EBM for 3 hours. […] For detection of pyknotic nuclei, cells were stained with Hoechst 33342. […] Infection with adenovirus encoding dominant-negative Aktl was initiated 24 hours prior to incubation in EBM media.

The next assay deals with eNOS. Nature of the assay: Phosphorylation of endogenous eNOS in vivo (32P-orthophosphate labelled HUVEC). Format: cell-based, human. As to conditions: simvastatin 1 μM or VEGF 100 ng/ml, 30 min. On the procedure: Alternatively, HUVEC were infected with adenovirus expressing constitutively-active Akt (myrAkt) 24 hours prior to radiolabeling and assayed for endogenous eNOS phosphorylation in the absence of Akt agonist. […] Endogenous eNOS protein was immunoprecipitated, separated by SDS-PAGE, and its phosphorylation was visualized by autoradiography. c, COS-7 cells co-transfected with eNOS (wt: wildtype eNOS, S1179A: serine 1179 mutant) and Akt (HA-Akt) expression plasmids. […] Immunoprecipitates of wild-type or mutant eNOS were examined for ^32P-phosphate incorporation by autoradiography following SDS-PAGE.
The lysate was subjected to immunoprecipitation using mouse monoclonal anti-eNOS antibody (Transduction Laboratories). Radiolabeled phosphate incorporation into each protein was visualized after SDS-PAGE (7.5%) by autoradiography.

For assay [2], the system named is bovine aortic endothelial cells. Nature of the assay: NO release from endothelial cells (chemiluminescence). Type of assay: cell-based. As to conditions: BAEC. The protocol: Nitric oxide release was measured in the cell supernatant by chemiluminescent detection of […] (NO2^−), the stable breakdown product of NO. […] In some samples, wortmannin was added 1 hour prior to stimulation. Cell supernatants were collected, deproteinized, and refluxed in glacial acetic acid containing sodium iodide. Processed specimens were measured with a NO analyzer (Sievers).

Another assay relates to ischemic hindlimb. The experiment in a line: Limb revascularization studies after unilateral femoral artery resection. Type of assay: in vivo. As to conditions: rabbit, simvastatin 0.1 mg/kg daily i.p., 40 days. The protocol:
Male New Zealand white rabbits weighing 3.0 to 3.5 kg were utilized to examine the effects of Akt-signaling and simvastatin-mediated stimulation of vessel growth. For the infusion model, the left femoral artery and major side branches were excised from their proximal origin to within 2 cm of the bifurcation into the saphenous and popliteal arteries. After 10 days, to permit postoperative recovery, the distal femoral artery was re-exposed and, after temporary clamping inflow veins, 50 ml of saline, saline with 3.5×10^10 viral particles of Ad-βgal, or saline with 3.5×10^10 viral particles of Ad-myrAkt was infused via the distal femoral artery and incubated for 15 minutes. […] The remainder of the animals (n=6 per experimental group) were analyzed for limb revascularization at 31 days after femoral artery resection. […] Animals in these groups (n=6 each) were analyzed for limb revascularization 40 days after surgery. Calf blood pressure was measured in both limbs by Doppler flow meter (model 1059, Parks Medical Electronics, Aloha, Oreg.). […] Collateral arteries were evaluated by internal iliac angiography. […] Nonionic contrast media (Isovue-370, Squibb Diagnostics, New Brunswick, N.J.) was injected at a rate of 1 ml/sec and serial images of the ischemic hindlimb were recorded at a rate of 1 film/sec for 10 seconds. […] Angiographic luminal diameter (d) was determined from the angiograms. […]

In another assay the test system is VEGF. Conditions: cultured primary endothelial cells; cited from earlier work.

On to `O=c1cc(N2CCOCC2)oc2c(-c3ccccc3)cccc12` [LY294002], for which the “total Akt or eNOS protein levels” value with Akt (HUVEC) is “no effect”.
As to `CC[C@H](C)C(=O)O[C@H]1C[C@@H](C)C=C2C=C[C@H](C)[C@H](CC[C@@H]3C[C@@H](O)CC(=O)O3)[C@H]21` [lovastatin], the tumor-induced blood-vessel formation entry in assay [1] is on record as “no angiostatic effects”.
`CC(O)(CCO)CC(=O)O` [mevalonate, L-mevalonate]: the “total Akt or eNOS protein levels” value in the assay on Akt (HUVEC) was “no effect”. For the same compound, the “effect on simvastatin-induced Akt phosphorylation” value with Akt (HUVEC pretreated 1 hour (mevalonate 200 μM, wortmannin 500 nM, LY294002 10 μM), then 1 μM simvastatin 30 minutes) is “blocked”. For the same compound, the “effect on VEGF-induced Akt phosphorylation” value in the assay on Akt (HUVEC, mevalonate 200 μM, 100 ng/ml VEGF) was “no effect”. In the assay with HUVEC, the “effect on VEGF-induced endothelial cell survival” value is “no effect”, the “effect on statin-induced endothelial cell survival” value was “blocked” and the “effect on survival in the absence of statin or VEGF stimulation” value is “no detectable effect”.
In the case of VEGF, in the assay with eNOS, the “phosphate incorporation in endogenous eNOS” value is listed as “increase”. Further, the “Akt serine 473 phosphorylation” value with Akt (HUVEC, simvastatin within 30 minutes, VEGF 100 ng/ml) is reported as “robust activation”.
In assay [2] (simvastatin 1 hour), `CCC(C)(C)C(=O)O[C@H]1C[C@@H](C)C=C2C=C[C@H](C)[C@H](CC[C@@H]3C[C@@H](O)CC(=O)O3)[C@H]21` [simvastatin] registered an NO release of 0.48±0.07 nmol NO2^−/ml. Also, in the assay with ischemic hindlimb, the “capillary density in adductor muscle” value is 253±23 capillaries/mm^2. In the assay with ischemic hindlimb (maximal flow after papaverine), this compound displayed a Doppler flow of 46.6 ± 3.0 mL/min. Moreover, in the assay on Akt (HUVEC, serine 473, within 30 minutes), the “simvastatin concentration at which maximal Akt phosphorylation occurs” value was found to be 1.0 µM.
For the compound `CC[C@H](C)C(=O)O[C@H]1CCC=C2C=C[C@H](C)[C@H](CC[C@@H]3C[C@@H](O)CC(=O)O3)[C@H]21` [mevastatin], in the assay on VEGF, the “induction of VEGF expression” value is reported as “completely blocked”.
On to `COC[C@H]1OC(=O)c2coc3c2[C@@]1(C)C1=C(C3=O)[C@@H]2CCC(=O)[C@@]2(C)C[C@H]1OC(C)=O` [wortmannin], for which, in assay [2] (wortmannin added 1 hour prior to simvastatin), the “simvastatin-stimulated NO release with wortmannin treatment” value was 0.26±0.05 nmol NO2^−/ml. Also, in assay [2] (wortmannin, no simvastatin), the “basal NO synthesis with wortmannin treatment” value was 0.29±0.07 nmol NO2^−/ml. The “total Akt or eNOS protein levels” value in the assay with Akt (HUVEC) is recorded as “no effect”.
For TNF-α, the tumor-induced blood-vessel formation entry in assay [1] is recorded as “no angiostatic effects”.

The values are drawn from patent US6689807B1, “HMG CoA reductase inhibitors for promoting angiogenesis” (priority 2000, dated 2004).
